These results are taken from PMC4657098, “A Review of the Updated Pharmacophore for the Alpha 5 GABA(A) Benzodiazepine Receptor Model” (International Journal of Medicinal Chemistry, 2015).

Each structure is given as a SMILES string. Where “and” joins values, the source holds several entries; their conditions need not be identical. Equal entries are not always repeated. Where two headings read alike, the source gives them in different places. Some results are limits rather than exact numbers.

One series concerns α1β3γ2 GABAA receptor. Conditions: cited from earlier work; for Efficacy α1 as % of control current: baseline 100.
Another series addresses T1, α6β2γ2 GABAA receptor (Homo sapiens, UniProt P18507+Q16445).
T1 construct: expressed in transfected cells; host or cells: HEK cells
The series can be described thus: Radioligand binding (McKernan and Atack), α6β2γ2. Conditions: Table 3; αxβ2γ2; means of two determinations; read-out: Binding affinity α6. The protocol:
(§1) Transfected HEK cells (beta2 gamma2 and desired alpha subtype) were harvested into phosphate-buffered saline, centrifuged at 3,000 g, and stored at −70°C until required. On the day of the assay, pellets were thawed and resuspended in sufficient volume of 50 mM Tris/acetate (pH 7.4 at 4°C) to give a total binding of approximately 1500–2000 dpm. […] Total assay volume was 0.5 mL and assays were carried out in 96-well plates and incubation time started by the addition of 0.1 mL of resuspended cell membranes. Following incubation for 1 hour at 4°C, assays were terminated by filtration through GF/B filters, washed with 10 mL ice cold buffer, dried, and then counted using a liquid scintillation counter. […] We have previously reported the synthesis of the following.

Series [1] deals with human airway smooth muscle. Conditions: 50 μM; p < 0.01; cited from earlier work.
The target in the next series is T2, α5β3γ2 GABAA receptor (Homo sapiens, UniProt P18507+P31644).
T2 construct: expressed in transfected cells; host or cells: Xenopus oocytes
Conditions: cited from earlier work; for Efficacy α5 as % of control current: baseline 100.

Series [2] has as its system dopamine neurons in the VTA. Particulars: cited from earlier work.
For series [3], the system named is guinea pig airway smooth muscle. Particulars: 1 μM substance P; p < 0.01; cited from earlier work.
In another series the test system is ventral HPC neurons. Conditions: 0.1 mg/kg, i.v.; MAM- and saline-treated animals; cited from earlier work.
Another series concerns rodents. Particulars: one study in rodents; cited from earlier work.
A further series deals with α2β3γ2 GABAA receptor. Conditions: cited from earlier work; for Efficacy α2 as % of control current: baseline 100.
Series [4] has as its system human airway smooth muscle cells. Particulars: 10 μM; bradykinin 1 μM; cited from earlier work.
The subject of the next series is α3β3γ2 GABAA receptor. Particulars: cited from earlier work; for Efficacy α3 as % of control current: baseline 100.
In a further series the test system is primates. Conditions: cited from earlier work.
In series [5] the test system is human airway smooth muscle cells. Particulars: whole cell patch clamp; cited from earlier work. (In patch-clamp work, channel activity is measured electrically.)
In a further series the target is T3, α4β2γ2 GABAA receptor (Homo sapiens, UniProt P18507+P48169).
T3 construct: expressed in transfected cells; host or cells: HEK cells
In words: Radioligand binding (McKernan and Atack), α4β2γ2. Conditions: Table 3; αxβ2γ2; means of two determinations; read-out: Binding affinity α4. The protocol: as §1

A further series has as its system MAM rats. Conditions: cited from earlier work.
Series [6] deals with T4, α6β3γ2 GABAA/BzR (Homo sapiens, UniProt P18507+Q16445). In words: Competition binding to HEK cell membranes, α6β3γ2. Also noted: expressed in transfected cells.
For series [7], the target named is T5, α1β3γ2 GABAA/BzR (Homo sapiens, UniProt P14867+P18507). In words: Competition binding to HEK cell membranes, α1β3γ2. Also on record: expressed in transfected cells. Conditions: Table 2; data from three separate laboratories; read-out: Affinity Ki α1.
The target of series [8] is T6, α2β3γ2 GABAA/BzR (Homo sapiens, UniProt P18507+P47869). In words: Competition binding to HEK cell membranes, α2β3γ2. Also noted: expressed in transfected cells. Particulars: Table 2; data from three separate laboratories; read-out: Affinity Ki α2.
Series [9] addresses T7, α3β3γ2 GABAA/BzR (Homo sapiens, UniProt P18507+P34903). Also noted: expressed in transfected cells; host or cells: LTK cells (given for XLi-093 only). Particulars: Figure 4, read-out: Ki α3, cited from earlier work.
Series [10] addresses T5, α1β3γ2 GABAA/BzR. Also noted: expressed in transfected cells; host or cells: LTK cells (given for XLi-093 only). Conditions: Figure 4, read-out: Ki α1, cited from earlier work.
For series [11], the target named is T6, α2β3γ2 GABAA/BzR. Also on record: expressed in transfected cells; host or cells: LTK cells (given for XLi-093 only). Conditions: Figure 4, read-out: Ki α2, cited from earlier work.
A further series concerns AD rat model. The series can be described thus: Spatial water maze task in AD rat model. It counts as in vivo. Conditions: relative to vehicle, p < 0.05. An excerpt:
It is well known many Down syndrome patients develop Alzheimer's disease or a dementia with a very similar etiology.

The next series addresses α5β3γ2 GABAA/BzR (Homo sapiens, UniProt P18507+P31644). In words: Competition binding to HEK cell membranes, α5β3γ2. Also on record: expressed in transfected cells. Conditions: Affinity Ki α5.
Series [12] deals with T7, α3β3γ2 GABAA/BzR. In words: Competition binding to HEK cell membranes, α3β3γ2. Particulars: Table 2; data from three separate laboratories; read-out: Affinity Ki α3. Also on record: expressed in transfected cells.
The subject of a further series is rhesus monkeys. Conditions: cited from earlier work.
A further series concerns rats. Conditions: cited from earlier work.
Series [13] has as its target T4, α6β3γ2 GABAA/BzR. Also on record: expressed in transfected cells; host or cells: LTK cells (given for XLi-093 only). Particulars: cited from earlier work.
For a further series, the system named is mice. Particulars: mice; ref Harris, DeLorey et al.; cited from earlier work.
The next series has as its target T8, α4β3γ2 GABAA/BzR (Homo sapiens, UniProt P18507+P48169).
T8 construct: expressed in transfected cells; host or cells: LTK cells (given for XLi-093 only)
Conditions: Figure 33; αxβ3γ2; read-out: Affinity Ki α4; cited from earlier work.

A further series relates to baboons. Conditions: cited from earlier work.
The subject of series [14] is alcohol preferring and HAD rats. Particulars: cited from earlier work.
The subject of series [15] is Bz BS of GABA(A) receptors. Particulars: cited from earlier work.

On to `C#Cc1ccc2c(c1)C(c1ccccc1F)=N[C@H](C)c1c(C(=O)OCC)ncn1-2` [SH-053-2′F-R-CH3, (2)], for which the “Efficacy α1 as % of control current” value with α1β3γ2 GABAA receptor (100 nM) is listed as 111 % of control current; in the series on α1β3γ2 GABAA receptor (1 μM) it was 154 % of control current. The Ki on α6β2γ2 GABAA receptor and on α4β2γ2 GABAA receptor was over 5 µM throughout. In addition, in [1], the “isoproterenol (10 nM) mediated relaxation of an acetylcholine EC50 contraction” value is listed as “significantly enhances”. For the same compound, the “Efficacy α5 as % of control current” value on α5β3γ2 GABAA receptor (100 nM) is 183 % of control current; on α5β3γ2 GABAA receptor (1 μM), 387 % of control current. Further, the “dopamine neuron activity in control animals” value in [2] (0.1 mg/kg, i.v.) is given as “no effect”. In series [2] (0.1 mg/kg, i.v.), the “firing rate and burst activity in MAM animals” value was “no effect”. For the same compound, the “number of spontaneously firing dopamine neurons (cells/track), MAM animals” value is “normalizes the aberrant increase” in series [2] (0.1 mg/kg, i.v.) and “normalizes the aberrant increase” in [2] (hippocampal infusion 1 μM/side). In addition, the “dopamine activity and locomotor response in MAM rats withdrawn from HAL” value in series [2] is “unresponsive”. In series [2] (hippocampal infusion 1 μM/side), the “percentage of spikes occurring in bursts, MAM and control animals” value is on record as “significantly reduced”. Also, in [2] (rat, in vivo), the “cells/track in repeatedly haloperidol-treated SAL rats” value is “reversed the haloperidol-induced reduction”. Also, the “firing rate of dopamine neurons in repeatedly haloperidol-treated SAL rats” value in [2] (rat, in vivo) is on record as “increase”. In addition, in series [2] (rat, in vivo), the “percentage of spikes occurring in bursts, haloperidol-treated SAL and MAM rats” value is reported as “no impact”. The “remaining contractile force 30 minutes after a substance P-induced contraction” value in [3] is reported as “significantly reduced”. Also, in the series on ventral HPC neurons, the “evoked excitatory response of ventral HPC neurons” value is recorded as “decreases”. Besides, the locomotion entry in the series on rodents is “decrease in locomotion”. The results for the “Efficacy α2 as % of control current” value in the series on α2β3γ2 GABAA receptor (100 nM) and with α2β3γ2 GABAA receptor (1 μM) were 124 % of control current and 185 % of control current, respectively. Besides, in series [4], the “bradykinin-induced increase in intracellular calcium” value is listed as “attenuated”. Also, the “Efficacy α3 as % of control current” value in the series on α3β3γ2 GABAA receptor (100 nM) is 125 % of control current; in the series with α3β3γ2 GABAA receptor (1 μM), 220 % of control current. Besides, the anxiolytic effect entry in the series on primates was “very weak anxiolytic effect”. The “plasma membrane chloride current” value in [5] is recorded as “induced a Cl^− current”. The “locomotor response to D-amphetamine (0.5 mg/kg i.p.), MAM rats” value in the series on MAM rats (10 mg/kg, i.p.) is given as “reduced”. The “locomotor response to D-amphetamine in repeatedly haloperidol-treated SAL animals” value in the series on MAM rats (rat, in vivo) is reported as “reduced”. Besides, the “peak locomotor response in repeatedly haloperidol-treated MAM rats” value with MAM rats (rat, in vivo) is reported as “no effect”.

With `COCc1ncn2c1CN(C)C(=O)c1cc(Cl)ccc1-2` [PWZ-029 (1)], the “modulation at the α1-subunit” value in the series on α1β3γ2 GABAA receptor (0.1 μM) is recorded as “little or no effect”. Moreover, the “efficacy type at the α1 subunit” value with α1β3γ2 GABAA receptor (oocytes, Sieghart et al.) is “very weak agonist activity”. Also, the Ki at α6β3γ2 GABAA/BzR [6] (Affinity Ki α6) was over 0.3 µM; at α1β3γ2 GABAA/BzR [7] it was > 0.3 µM and 0.92 µM and 0.362 µM; at α2β3γ2 GABAA/BzR [8] it was > 0.3 µM and 0.18 µM; on α3β3γ2 GABAA/BzR [9] (listed as 1a), over 0.3 µM; on α3β3γ2 GABAA/BzR [9] (listed as 1c), 0.328 µM; on α1β3γ2 GABAA/BzR [10] (listed as 1a), over 0.3 µM. The Ki is 0.362 µM on α1β3γ2 GABAA/BzR [10] (listed as 1c); over 0.3 µM at α2β3γ2 GABAA/BzR [11] (listed as 1a); 0.18 µM on α2β3γ2 GABAA/BzR [11] (listed as 1c); 0.0388 µM and 0.03 µM and 0.006 µM at α5β3γ2 GABAA/BzR; > 0.3 µM and 0.328 µM at α3β3γ2 GABAA/BzR [12]; over 0.3 µM at α6β3γ2 GABAA/BzR [13] (read-out: Ki α6). The “efficacy type at the α5-subunit” value at α5β3γ2 GABAA receptor is “negative allosteric modulator”. Besides, at α5β3γ2 GABAA receptor, the “modulation at the α5-subunit” value is reported as “moderate negative modulation”. In addition, the “latency to reach the hidden platform (memory probe trials)” value with AD rat model is on record as “significant decrease in the latency to reach the hidden platform”. The “modulation at the α2-subunit” value with α2β3γ2 GABAA receptor (0.1 μM) was “little or no effect”. Also, the “efficacy type at the α2 subunit” value with α2β3γ2 GABAA receptor (oocytes, Sieghart et al.) was “very weak agonist activity”. The “modulation at the α3-subunit” value in the series with α3β3γ2 GABAA receptor (0.1 μM) is given as “little or no effect”. Moreover, the “efficacy type at the α3 subunit” value in the series on α3β3γ2 GABAA receptor (oocytes, Sieghart et al.) is listed as “very weak agonist activity”. Moreover, in the series with rhesus monkeys (i.v.), the “ORD “difficult” trials” value is “increasing dose-dependent curve for successful trials”. Further, in the series on rhesus monkeys (i.v.), the “ORD “mixed” trials versus vehicle” value was “no significant results”. In the series with rhesus monkeys (scopolamine 0.01 mg/kg), the “ORD, cholinergic deficits induced by scopolamine” value was “dose-dependently reverse the cholinergic deficits”. Also, the “recognition memory deficit induced by 0.3 mg/kg scopolamine, 1 h delay” value with rats (2 mg/kg) is listed as “successfully reversed the deficit in recognition memory”. For the same compound, the “object recognition, 24 h delay” value with rats (2, 5 and 10 mg/kg) was “improved object recognition”. Further, in the series with mice, the scopolamine-induced memory impairment entry is listed as “potently reversed”.

In the case of `CCCOc1cc2c(cn1)[nH]c1ccccc12.Cl` [3 PBC, 3-propoxy-β-carboline hydrochloride], the Ki on α4β3γ2 GABAA/BzR was 1 µM; on α6β3γ2 GABAA/BzR [6] (Ki α6), 1 µM; on α6β3γ2 GABAA/BzR [13] (Figure 33, αxβ3γ2, read-out: Affinity Ki α6), over 1 µM. Moreover, the activity in baboons entry in the series on baboons is “active”. The “rate at which rats self-administrated alcohol” value in series [14] (alcohol preferring and HAD rats) is “reduce the rate”. Further, the sucrose self-administration result in series [14] is on record as “little or no effect”. In addition, the modulation result in series [15] (Supplement Table 1) was “antagonist”. The “pharmacological properties compared with classical benzodiazepine receptor antagonists” value in [15] is given as “near GABA neutral antagonists”.
